{"source": "patent US6605639B1", "about": "“Ligands of nuclear receptor” (Nuclear Receptor Research, Ltd., priority 1998, dated 2003)", "key": {"Solubility": {"assay": "Solubility", "format": "physicochemical", "method": "Subsequently, Compound-6 was added to the serum to examine the formation of a Schiff base in vitro. […] When Compound-6 dissolved in dimethyl sulfoxide at a high concentration was added in portions to bovine serum, Compound-6 was dissolved in the serum at a ratio of […] (i.e., 1000-fold) and the serum turned yellow depending on the concentration of Compound-6. When an organic solvent (ethanol, acetonitrile, etc.) was added to this yellow serum, the coloring matter was not dissolved in the organic solvent but precipitated as yellow serum protein. The organic solvent layer contained no Compound-6. However, Compound-6 was quantitatively recovered as an acetonitrile solution by adding acetonitrile containing 1% of acetic acid to this yellow precipitate and allowing the mixture to stand for 1 week. In a reaction between a protein and a drug molecule, there has been taken no consideration into the conversion into a novel compound via the formation of a covalent bond between the drug and serum protein in vivo. However, it is obvious that aldehyde group in the benzene ring of the compounds of the present invention and amino group of serum protein form a Schiff base on the basis of the following facts. (1) The compounds of the present invention cannot be detected by any usual methods from the serum of animals to which the compounds have been administered. (2) The compounds of the present invention are released by adding an acidified organic solvent in a large amount to the serum and allowing to stand at room temperature for about 1 week. (3) When added to serum in vitro, the compounds of the present invention are dissolved at a ratio as high as 1000-fold and can be recovered by the same method as used in recovering the compounds of the present invention from the serum of animals to which the compounds have been administered. (4) The serum of animals, to which the compounds have been administered, or serum containing the compounds of the present invention turns into yellow."}, "male Wistar rats": {"tested_on": "male Wistar rats", "assay": "Sterol balance and bile acid excretion in rats", "format": "in vivo, rat", "conditions": "10 mg/kg oral once a day", "method": "Feed-origin cholesterol and neutral sterol and acidic sterol in the feces of rats, to which the compounds of the present invention had been administered, were determined to monitor sterol balance and changes in the bile acid composition in feces. […] Further, the bile was sampled with the passage of time from rats having been subjected to cholangiostomy and bile acids thereof were determined. […] Male Wistar rats weighting about 250 g were divided into groups each having 6 to 8 animals. […] […] The feces were collected on the days 6 and 10. Then sterols were extracted therefrom in a conventional manner, acidic sterols and neutral sterols were determined. On the other hand, cholesterol in the feed was also determined so as to calculate the amount of feed-origin sterol."}, "[1]": {"assay": "Oral administration of radioisotope-labeled compound: recovery and distribution of radioactivity", "format": "in vivo, rat", "conditions": "once", "from_the_text": "The Schiff base formed by the reaction of the compound of the present invention with serum protein is an inactivated compound with a masked biological activity. […] It is still interesting that the radioactive compound incorporated into the adipocyte tissue was free Compound-6 dissolved in oil droplets in cells. It is unknown why the radioactivity is distributed selectively in adipocyte tissue and accumulated with the passage of time. […] Namely, the compound of the present invention is converted into a highly safe Schiff base with the masked biological activity at the step of being absorbed via digestive tract. This Schiff base is adsorbed on the target cell surface layer and incorporated into the cells via endocytosis. Then it is hydrolyzed to regenerate the free Compound-6. The free Compound-6 is dissolved in oil droplets in depot fat. In adipocytes, it is gradually dissolved in cytoplasm and exerts its effect. When depot fat in white adipocyte tissue is transported into other tissues as an energy source, the free Compound-6 is transported together with the fat. That is to say, it also serves as a depot simultaneously. The compound according to the present invention is hardly incorporated into other tissues. […] Different from retinoids, the compounds of the present invention can exert the effects without causing the side effects inherent to retinoids. The reasons are, without doubt, related to kinetics (absorption, transportation, regeneration of activated compound in target cell surface layer, etc.) of the compounds of the present invention, which differ from those of retinoids. […]"}, "mouse and rat": {"tested_on": "mouse and rat", "assay": "Oral administration of ascochlorin to rodents", "format": "in vivo", "from_the_text": "These effects make ascochlorin adequate as a remedy for insulin resistance syndrome. In animal experiments, however, the anorexic effect is similar to the effect of enhancing the action of insulin, which makes it highly difficult to evaluate the drug effect as an insulin enhancing agent. Thus, attempts were made to synthesis derivatives having a relatively weak anorexic effect by synthesizing various derivatives through the modification of the molecular structure of ascochlorin."}, "db/db mice": {"tested_on": "db/db mice", "assay": "Calcium metabolism in db/db mice", "format": "in vivo, mouse", "conditions": "administration for 1 week", "from_the_text": "RXR also forms a heterodimer with a nuclear receptor, VDR, which acts with active vitamin D3 (1a,25-dihydrocyvitamin D3) as a ligand. However, no study has been made so far how the formation of this heterodimer means in vivo. Thus the effect of this heterodimer on gene transcription and, in its turn, its physiological meaning still remain unknown. Activated vitamin D3 is essential for bone development and growth in children. Also, it is essential for preventing osteoporosis and bone fracture in aged and sick persons. In spite of such meaningful effects, studies have not been conducted to clarify the function of the heterodimer of VDR with RXR. The inventors studied calcium metabolism in db/db mice and the effect of Compound-14 on the calcium metabolism. This study was partly reported in 1992 (Tomoyoshi Hosokawa, Nogei Kagaku Kai-shi (J. Agr. Chem.), 66:1221-1226, 1992). Compared with normal litter of the same age, db/db mice show abnormally high levels of urinary calcium, blood calcium, blood calcitonin and parathyroid hormone. […] By feeding db/db mice over a long time of period (4 weeks), it was found out that these animals suffered form a decrease in bone mineral density compared with normal litter of the same age. […]"}}}
{"compound": "COc1c(Cl)c(C)c(C=O)c(O)c1C/C=C(C)/C=C/[C@@]1(C)[C@H](C)CCC(=O)[C@@H]1C", "note": "[Compound-6, 4-O-methylASC]", "values": [{"measurement": "dissolved in bovine serum at a ratio of", "setting": "Solubility; added in portions from dimethyl sulfoxide solution", "result": 800, "unit": "µg/mL"}, {"measurement": "solubility in serum relative to PBS", "setting": "Solubility; bovine serum", "result": 1000, "unit": "fold"}, {"measurement": "solubility", "setting": "Solubility; phosphate buffer saline (PBS)", "result": 0.8, "unit": "µg/mL"}, {"measurement": "Serum total cholesterol", "setting": "male Wistar rats; Standard feed", "result": "65.0 ± 2.98", "unit": "mg/dL"}, {"measurement": "Sterol Excretion", "setting": "male Wistar rats; Standard feed", "result": 10.81, "unit": "mg/200 g wt."}, {"measurement": "Sterol balance", "setting": "male Wistar rats; Standard feed", "result": -2.26, "unit": "mg"}, {"measurement": "Serum total cholesterol", "setting": "male Wistar rats; feed containing cholesterol", "result": "77.0 ± 2.19", "unit": "mg/dL"}, {"measurement": "Sterol Excretion", "setting": "male Wistar rats; feed containing cholesterol", "result": 275.52, "unit": "mg/200 g wt."}, {"measurement": "Sterol balance", "setting": "male Wistar rats; feed containing cholesterol", "result": "+25.93 mg"}, {"measurement": "radioactivity incorporated into white adipocyte tissue", "setting": "[1]", "result": "elevated day by day"}, {"measurement": "route of excretion of radioactivity", "setting": "[1]", "result": "mostly excreted via feces"}, {"measurement": "time after which radioactivity disappeared in most of the organs", "setting": "[1]", "result": 3, "unit": "days"}]}
{"compound": "3-[5-[l(R),2(S),6(S)-trimethyl-3-oxocylohexyl]-3-methyl-2,4-pentadienyl]-2,4-dihydroxy-5-chloro-6-methylbenzaldehyde [Compound-1]", "values": [{"measurement": "effects of oral administration", "setting": "mouse and rat; mouse and rat", "result": "anorexic effect as well as effects of lowering the blood glucose level, the serum lipid level and the serum insulin level"}, {"measurement": "blood pressure", "setting": "mouse and rat; oral, anesthetized rats and hypertensive rats", "result": "potent effect of lowering blood pressure"}]}
{"compound": "CC(/C=C/[C@@]1(C)[C@H](C)CCC(=O)[C@@H]1C)=C\\Cc1c(O)c(C=O)c(C)c(Cl)c1OCC(=O)O", "note": "[Compound-14, 4-O-carboxymethylASC]", "values": [{"measurement": "urinary calcium, blood calcium and calcitonin levels", "setting": "db/db mice", "result": "significantly lowered"}]}
